Counter-ions that a name gives are not always drawn.
Columns and labels:
Assay type in all cases: in vivo
[1] = Body weight before and after drug administration in KKAy mice; details: male KKAy mice; for Body weight, After administration: at final administration; for Body weight, After administration / Body weight, Before administration: mean ± standard error; for Body weight, Before administration: baseline, day before start of dosing; for Change in body weight compared to the value before drug administration: paired t-test
Description: (§1) For the experiment, male KKAy mice (CLEA Japan, Inc.) were used. KKAy mice show obesity and high blood glucose from 7 or 8 weeks old, and are commonly used as model mice for type 2 diabetes. The KKAy mice were purchased when they were 5 weeks old, and, from immediately thereafter, fed with CMF feed (Oriental Yeast Co., Ltd.) for 3 weeks under free food/water intake conditions, before being subjected to the experiment. For continuous subcutaneous administration of a solvent (physiological saline, 6 μL/day) or BPS (1 mg/kg/day, commercially available product from Toray Industries, Inc.), a minipump for sustained release (Alzet micro osmotic pump model 1002, Alzet osmotic pumps company) was subcutaneously placed in each KKAy mouse. The continuous administration of physiological saline or BPS was carried out until the end of the experiment. From 3 days after the placement (beginning of the subcutaneous continuous administration), oral administration of a solvent (0.5% methyl cellulose (MC) solution, 10 mL/kg) or pioglitazone hydrochloride (product synthesized in Toray Industries, Inc.) was started. Pioglitazone hydrochloride was administered as a suspension in 0.5% MC solution. The 0.5% MC solution and pioglitazone hydrochloride were administered for 10 days, during which the administration was carried out once per day in the evening. The mice were divided into the following experimental groups: • (1) Control group (n=8): physiological saline (6 μL/day)+0.5% MC solution (10 mL/kg) • (2) BPS group (n=6): BPS (1 mg/kg/day)+0.5% MC solution (10 mL/kg) • (3) Pioglitazone hydrochloride 3 mg group (n=6): physiological saline (6 μL/day)+pioglitazone hydrochloride (3 mg/kg) • (4) BPS/pioglitazone hydrochloride 3 mg-combined-use group (n=6): BPS (1 mg/kg/day)+pioglitazone hydrochloride (3 mg/kg) • (5) Pioglitazone hydrochloride 30 mg group (n=6): physiological saline (6 μL/day)+pioglitazone hydrochloride (30 mg/kg).
(§2) The body weight and the casual blood glucose level were measured on the day before starting of the continuous administration of physiological saline or BPS (these correspond to the data shown in the “Before administration” columns in Tables 1 and 2). The body weight was measured when 0.5% MC solution or pioglitazone hydrochloride was finally administered, and the casual blood glucose level was measured about 18 hours after the final administration (these correspond to the data shown in the “After administration” columns in Tables 1 and 2). The casual blood glucose level was measured by collecting about 5 μL of blood from the tail vein and subjecting the blood to measurement with a simplified blood glucose meter (Medisense Precision Xceed, ABBOTT JAPAN Co., LTD.).

KKAy mice [2] = experiment: Glucose tolerance test after drug administration in KKAy mice; details: male KKAy mice; for ΔAUC0-120 (area under the Δblood glucose level-time curve, 0 to 120 minutes): oral glucose 1.5 g/kg after fasting, mean ± standard error, in mg·min/dL (unit assumed)
Method: For the experiment, male KKAy mice (CLEA Japan, Inc.) were used. […] Pioglitazone hydrochloride was administered as a suspension in 0.5% MC solution. […] The continuous administration of physiological saline or BPS was carried out until the end of the experiment. The experimental groups were as follows: • (1) Control group (n=6): physiological saline (6 μL/day)+0.5% MC solution (10 mL/kg) • (2) BPS group (n=5): BPS (1 mg/kg/day)+0.5% MC solution (10 mL/kg) • (3) Pioglitazone hydrochloride 3 mg group (n=5): physiological saline (6 μL/day)+pioglitazone hydrochloride (3 mg/kg) • (4) BPS/pioglitazone hydrochloride 3 mg-combined-use group (n=6): BPS (1 mg/kg/day)+pioglitazone hydrochloride (3 mg/kg) • (5) Pioglitazone hydrochloride 30 mg group (n=6): physiological saline (6 μL/day)+pioglitazone hydrochloride (30 mg/kg). […] The increase in the blood glucose level at each timing relative to the blood glucose level observed immediately before the administration of glucose (0 minute) was defined as Δblood glucose level. The length of time (minutes) after the administration of glucose was plotted along the abscissa and Δblood glucose level (mg/dL) was plotted along the ordinate, to calculate the area under the Δblood glucose level-time curve from 0 minute to 120 minutes (ΔAUC0-120).

KKAy mice [3] = experiment: Casual blood glucose level before and after drug administration in KKAy mice; details: male KKAy mice; for Casual blood glucose level, After administration: about 18 hours after final administration; for Casual blood glucose level, After administration / Casual blood glucose level, Before administration: mean ± standard error; for Casual blood glucose level, Before administration: baseline, day before start of dosing
Description: as §1, §2

[4] = BPS 1 mg/kg/day s.c. continuous and/or pioglitazone hydrochloride 3 mg/kg p.o. once daily 10 days
[5] = groups BPS 1 mg/kg/day s.c. continuous and/or pioglitazone hydrochloride 3 mg/kg p.o.
[6] = BPS 1 mg/kg/day s.c. continuous and/or pioglitazone hydrochloride 3 mg/kg p.o. once daily 20 days
[7] = pioglitazone hydrochloride 30 mg/kg group
[8] = pioglitazone hydrochloride 30 mg/kg p.o. once daily 10 days

Compound	Body weight, After administration [1, 4] [g]	Body weight, Before administration [1, 5] [g]	Change in ΔAUC0-120 compared to the control group (KKAy mice [2]; glucose tolerance test, BPS 1 mg/kg/day s.c. and/or pioglitazone hydrochloride 3 mg/kg p.o.)	ΔAUC0-120 (area under the Δblood glucose level-time curve, 0 to 120 minutes) (KKAy mice [2]; [6])	Change in casual blood glucose level compared to the value before drug administration (KKAy mice [3]; BPS 1 mg/kg/day s.c. and/or pioglitazone hydrochloride 3 mg/kg p.o., paired t-test)	Casual blood glucose level, After administration (KKAy mice [3]; [4]) [mg/dL]	Casual blood glucose level, Before administration (KKAy mice [3]; [5]) [mg/dL]	Change in body weight compared to the value before drug administration ([1]; BPS 1 mg/kg/day s.c. and/or pioglitazone hydrochloride 3 mg/kg p.o.)	Body weight, Before administration [1, 7] [g]	Body weight, After administration [1, 8] [g]	Change in body weight compared to the value before drug administration ([1]; pioglitazone hydrochloride 30 mg/kg p.o.)	ΔAUC0-120 (area under the Δblood glucose level-time curve, 0 to 120 minutes) (KKAy mice [2]; pioglitazone hydrochloride 30 mg/kg p.o. once daily 20 days)	Casual blood glucose level, Before administration (KKAy mice [3]; [7]) [mg/dL]	Casual blood glucose level, After administration (KKAy mice [3]; [8]) [mg/dL]
CC#CCC(C)[C@H](O)/C=C/[C@@H]1[C@H]2c3cccc(CCCC(=O)O)c3O[C@H]2C[C@H]1O (mixture of isomers) [BPS, beraprost sodium]	42.3 ± 1.1	41.2 ± 0.8	no change	18684 ± 3551	no change	392.3 ± 28.9	493.0 ± 35.6	–	–	–	–	–	–	–
CCc1ccc(CCOc2ccc(CC3SC(=O)NC3=O)cc2)nc1 (stereo not shown) [Pioglitazone hydrochloride, pioglitazone hydrochloride]	44.2 ± 1.3	41.7 ± 1.2	–	23138 ± 4870	–	452.8 ± 53.4	450.3 ± 15.4	significant increase	42.6 ± 1.1	46.7 ± 1.3	significant increase	22461 ± 2157	437.7 ± 21.7	271.3 ± 16.9

Reference: patent publication US9492422B2, “Therapeutic or prophylactic agent for diabetes” (Toray Industries, Inc., priority 2009, dated 2016)
